Data: US10683290B2, “Tricyclic compounds as anticancer agents” (BRISTOL-MYERS SQUIBB COMPANY, priority 2015, dated 2020)
pIC50: −log10 of the molar value.

What follows are molecules tested against BRD4 (Homo sapiens, UniProt O60885) (assay: biochemical). Details: one of the FRET assays described; read-out: FRET BRD4 IC50.
Assay type: binding

SMILES	pIC50
Cc1nnn(C)c1-c1cc2c(cc1F)c1ncc(C(C)(C)O)cc1n2[C@H](c1ccccc1F)C1CCOCC1 [Example 21, 2-[7-(Dimethyl-1H-1,2,3-triazol-5-yl)-8-fluoro-5-[(S)-(2-fluorophenyl)(oxan-4-yl)methyl]-5H-pyrido[3,2-b]indol-3-yl]propan-2-ol]	> 9.00
[2H]C([2H])([2H])c1nnn(C)c1-c1cc2c(cc1F)c1ncc(C(C)(C)O)cc1n2C(c1ncccc1OC)C1CCOCC1 (single isomer, unassigned) [Example 40, 2-{8-fluoro-5-[(3-methoxypyridin-2-yl)(oxan-4-yl)methyl}-7-[4-(^2H3)methyl-1-methyl-1H-1,2,3-triazol-5-yl]-5H-pyrido[3,2-b]indol-3-yl]propan-2-ol]	> 5.82
Cc1nnn(C)c1-c1cc2c(cc1F)c1ncc(C(C)(O)C3CC3)cc1n2[C@H](c1ccccc1F)C1CCOCC1 (single isomer, unassigned) [Example 24]	> 8.30
[2H]C([2H])([2H])c1nnn(C)c1-c1cc2c(cc1Cl)c1ncc(C(C)(C)O)cc1n2C(CCC)c1ncccc1F (single isomer, unassigned) [Example 83, 2-{8-chloro-5-[1-(3-fluoropyridin-2-yl)butyl]-7-[4-(^2H3)methyl-1-methyl-1H-1,2,3-triazol-5-yl]-5H-pyrido[3,2-b]indol-3-yl}propan-2-ol]	> 8.30
[2H]C([2H])([2H])c1nnn(C)c1-c1cc2c(cc1F)c1ncc(C(C)(C)O)cc1n2C(c1ncccc1F)C1CCOCC1 (centres unmarked) [Example 30, 2-{8-Fluoro-5-[(3-fluoropyridin-2-yl)(oxan-4-yl)methyl]-7-[4-(^2H3)methyl-1-methyl-1H-1,2,3-triazol-5-yl]-5H-pyrido[3,2-b]indol-3-yl}propan-2-ol]	> 9.00
[2H]C([2H])([2H])c1nnn(C)c1-c1ccc2c3ncc(S(C)(=O)=O)cc3n([C@H](c3ccccc3)C3CCOCC3)c2c1 [Example 27, 5-{3-Methanesulfonyl-5-[(S)-oxan-4-yl(phenyl)methyl]-5H-pyrido[3,2-b]indol-7-yl}-4-(^2H3)methyl-1-methyl-1H-1,2,3-triazole]	> 8.30
[2H]C([2H])([2H])c1nnn(C)c1-c1cc2c(cc1F)c1ncc(C(C)(C)O)cc1n2C(c1ccccc1)C1COC1 (single isomer, unassigned) [Example 68, 2-{8-fluoro-7-[4-(^2H3)methyl-1-methyl-1H-1,2,3-triazol-5-yl]-5-[oxetan-3-yl(phenyl)methyl]-5H-pyrido[3,2-b]indol-3-yl}propan-2-ol]	> 5.82
[2H]C([2H])([2H])c1nnn(C)c1-c1ccc2c3ncc(C(C)(C)O)cc3n(C(c3ncccc3F)C3CCOCC3)c2c1F (single isomer, unassigned) [Example 84, 2-{6-Fluoro-5-[(3-fluoropyridin-2-yl)(oxan-4-yl)methyl]-7-[4-(^2H3)methyl-1-methyl-1H-1,2,3-triazol-5-yl]-5H-pyrido[3,2-b]indol-3-yl}propan-2-ol]	> 8.30
Cc1noc(C)c1-c1ccc2c3ncc(C(C)(C)O)cc3n([C@H](c3ccccc3)C3CCOCC3)c2c1 [Example 14, 2-[7-(Dimethyl-1,2-oxazol-4-yl)-5-[(S)-oxan-4-yl(phenyl)methyl]-5H-pyrido[3,2-b]indol-3-yl]propan-2-ol]	> 8.30
[2H]C([2H])([2H])c1nnn(C)c1-c1cc2c(cc1F)c1ncc(C(C)(C)O)cc1n2C(CC1COC1)c1ccccc1 (racemic) [Example 66, 2-{8-fluoro-7-[4-(^2H3)methyl-1-methyl-1H-1,2,3-triazol-5-yl]-5-[2-(oxetan-3-yl)-1-phenylethyl]-5H-pyrido[3,2-b]indol-3-yl}propan-2-ol]	> 9.00
Cc1nnn(C)c1-c1cc(Cl)c2c3ncc(C(C)(C)O)cc3n(C(CCC(F)(F)F)CCC(F)(F)F)c2c1 [Example 12, 2-[9-Chloro-7-(dimethyl-1H-1,2,3-triazol-5-yl)-5-(1,1,1,7,7,7-hexafluoroheptan-4-yl)-5H-pyrido[3,2-b]indol-3-yl]propan-2-ol]	> 8.30
[2H]C([2H])([2H])c1nnn(C)c1-c1cc2c(cc1Cl)c1ncc(C(C)(C)O)cc1n2C(c1ccccn1)C1CCOCC1 (single isomer, unassigned) [Example 80, 2-{8-chloro-7-[4-(^2H3)methyl-1-methyl-1H-1,2,3-triazol-5-yl]-5-[oxan-4-yl(pyridin-2-yl)methyl]-5H-pyrido[3,2-b]indol-3-yl}propan-2-ol]	> 5.82
Cc1nnn(C)c1-c1cc2c(cc1F)c1ncc(C(C)(O)C3CC3)cc1n2[C@H](c1ccccc1F)C1CCOCC1 (single isomer, unassigned) [Example 23]	> 8.30
[2H]C([2H])([2H])c1nnn(C)c1-c1cc2c(cc1Cl)c1ncc(C(C)(C)O)cc1n2C(c1ncccc1F)C1CCOCC1 (single isomer, unassigned) [Example 75, 2-{8-Chloro-5-[(3-fluoropyridin-2-yl)(oxan-4-yl)methyl]-7-[4-(^2H3)methyl-1-methyl-1H-1,2,3-triazol-5-yl]-5H-pyrido[3,2-b]indol-3-yl}propan-2-ol]	> 5.82
[2H]C([2H])([2H])c1nnn(C)c1-c1cc2c(cc1F)c1ncc(C(C)(C)O)cc1n2C(C1=CCCOC1)c1ccccc1 (racemic) [Example 61, 2-{5-[5,6-dihydro-2H-pyran-3-yl(phenyl)methyl]-8-fluoro-7-[4-(^2H3)methyl-1-methyl-1H-1,2,3-triazol-5-yl]-5H-pyrido[3,2-b]indol-3-yl}propan-2-ol]	> 8.30
[2H]C([2H])([2H])c1nnn(C)c1-c1cc2c(cc1F)c1ncc(C(C)(C)O)cc1n2C(CCC)c1ncccc1F (single isomer, unassigned) [Example 39, 2-{8-fluoro-5-[1-(3-fluoropyridin-2-yl)butyl]-7-[4-(^2H3)methyl-1-methyl-1H-1,2,3-triazol-5-yl}-5H-pyrido[3,2-b]indol-3-yl]propan-2-ol]	> 8.30
Cc1nnn(C)c1-c1cc2c(cc1F)c1ncc(C(C)(C)O)cc1n2C(c1ccc(F)cn1)C1CCOCC1 (single isomer, unassigned) [Example 69, 2-[7-(dimethyl-1H-1,2,3-triazol-5-yl)-8-fluoro-5-[(5-fluoropyridin-2-yl)(oxan-4-yl)methyl]-5H-pyrido[3,2-b]indol-3-yl]propan-2-ol]	> 5.82
[2H]C([2H])([2H])c1nnn(C)c1-c1cc2c(cc1F)c1ncc(C(C)(C)O)cc1n2C(c1ncccc1F)C1CCOCC1 (centres unmarked) [Example 31, 2-{8-Fluoro-5-[(3-fluoropyridin-2-yl)(oxan-4-yl)methyl]-7-[4-(^2H3)methyl-1-methyl-1H-1,2,3-triazol-5-yl]-5H-pyrido[3,2-b]indol-3-yl}propan-2-ol]	> 8.30
Cc1nnn(C)c1-c1ccc2c3ncc(C(C)(C)O)cc3n([C@H](c3ccc(F)cc3)C3CCOCC3)c2c1 [Example 3, 2-[7-(Dimethyl-1H-1,2,3-triazol-5-yl)-5-[(S)-(4-fluorophenyl)(oxan-4-yl)methyl]-5H-pyrido[3,2-b]indol-3-yl]propan-2-ol]	> 9.00
Cc1nnn(C)c1-c1ccc2c3ncc(C(C)(C)O)cc3n([C@H](c3ccccc3)C3CCOCC3)c2c1 [Example 8, 2-[7-(dimethyl-1H-1,2,3-triazol-5-yl)-5-[(S)-oxan-4-yl(phenyl)methyl]-5H-pyrido[3,2-b]indol-3-yl]propan-2-ol]	> 9.00
